Measurements taken from ChEMBL document CHEMBL1201862, “PubChem BioAssay data set” (2004).
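Each compound was tested at five concentrations against cells in 96-well plates for 48 hours. GI50 marks 50% less growth.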 Activity calls are given as the source filed them. Cut-off read from the data, not from the text of the source: active = GI50 up to about 1.1 µM and inactive = higher.

Tests used:
Test in all cases: NCI tumour cell line growth inhibition, 48 h
SN12C = test system: SN12C
Malme-3M = test system: Malme-3M
SK-MEL-2 = test system: SK-MEL-2
OVCAR-3 = test system: OVCAR-3
SF-268 = test system: SF-268
TK-10 = test system: TK-10
NCI-H226 = test system: NCI-H226
CCRF-CEM = test system: CCRF-CEM
UO-31 = test system: UO-31
HL-60 = test system: HL-60
COLO 205 = test system: COLO 205
HOP-62 = test system: HOP-62
UACC-62 = test system: UACC-62
HCT-15 = test system: HCT-15
A549 = test system: A549
NCI-H23 = test system: NCI-H23
SF-539 = test system: SF-539

Row | Structure (SMILES) | GI50 (SN12C) | GI50 (Malme-3M) | GI50 (SK-MEL-2) | GI50 (OVCAR-3) | GI50 (SF-268) | GI50 (TK-10) | GI50 (NCI-H226) | GI50 (CCRF-CEM) | GI50 (UO-31) | GI50 (HL-60) | GI50 (COLO 205) | GI50 (HOP-62) | GI50 (UACC-62) | GI50 (HCT-15) [µM] | GI50 (A549) | GI50 (NCI-H23) | GI50 (SF-539)
1 | O=C(CSc1nnc(Cc2ccccc2)o1)Nc1cccc([N+](=O)[O-])c1 | > 100 µM (inactive) | > 100 µM (inactive) | > 100 µM (inactive) | > 100 µM (inactive) | > 100 µM (inactive) | > 100 µM (inactive) | > 100 µM (inactive) | > 100 µM (inactive) | > 100 µM (inactive) | > 100 µM (inactive) | > 100 µM (inactive) | > 100 µM (inactive) | > 100 µM (inactive) | > 100 | > 100 µM (inactive) | > 100 µM (inactive) | > 100 µM (inactive)
2 | CCOc1ccc(NCC(=O)N2CC(=O)Nc3ccccc32)cc1 | > 100 µM (inactive) | > 100 µM (inactive) | > 100 µM (inactive) | > 100 µM (inactive) | > 100 µM (inactive) | > 100 µM (inactive) | > 100 µM (inactive) | > 100 µM (inactive) | > 100 µM (inactive) | > 100 µM (inactive) | > 100 µM (inactive) | > 100 µM (inactive) | > 100 µM (inactive) | > 100 | > 100 µM (inactive) | > 100 µM (inactive) | > 100 µM (inactive)
3 | COc1cc(NC(C)=O)c2[nH]c3c(C)cc(NC(C)=O)c(C)c3c2c1 | > 100 µM (inactive) | – | > 100 µM (inactive) | > 100 µM (inactive) | > 100 µM (inactive) | > 100 µM (inactive) | > 100 µM (inactive) | > 100 µM (inactive) | > 100 µM (inactive) | > 100 µM (inactive) | > 100 µM (inactive) | – | – | > 100 | > 100 µM (inactive) | > 100 µM (inactive) | > 100 µM (inactive)
4 | O=C1c2ccccc2C(=O)N1Cc1ccccc1-c1c2nc(c(-c3ccccc3CN3C(=O)c4ccccc4C3=O)c3ccc([nH]3)c(-c3ccccc3CN3C(=O)c4ccccc4C3=O)c3nc(c(-c4ccccc4CN4C(=O)c5ccccc5C4=O)c4ccc1[nH]4)C=C3)C=C2 | > 100 µM (inactive) | > 100 µM (inactive) | > 100 µM (inactive) | > 100 µM (inactive) | > 100 µM (inactive) | > 100 µM (inactive) | > 100 µM (inactive) | > 100 µM (inactive) | > 100 µM (inactive) | > 100 µM (inactive) | 74 µM (inactive) | > 100 µM (inactive) | > 100 µM (inactive) | > 100 | > 100 µM (inactive) | > 100 µM (inactive) | > 100 µM (inactive)
5 | Cc1cc(NS(=O)(=O)c2ccc(NC(=O)COC(=O)c3cccc4c(=O)c5ccccc5[nH]c34)cc2)no1 | > 100 µM (inactive) | > 100 µM (inactive) | – | > 100 µM (inactive) | > 100 µM (inactive) | > 100 µM (inactive) | > 100 µM (inactive) | > 100 µM (inactive) | > 100 µM (inactive) | > 100 µM (inactive) | > 100 µM (inactive) | > 100 µM (inactive) | > 100 µM (inactive) | > 100 | > 100 µM (inactive) | > 100 µM (inactive) | > 100 µM (inactive)
6 | COC(=O)C(CC(C)C)NC(=O)NC12CC3CC(CC(F)(C3)C1)C2 (centres undefined) | – | > 100 µM (inactive) | > 100 µM (inactive) | > 100 µM (inactive) | – | > 100 µM (inactive) | – | > 100 µM (inactive) | 46.6 µM (inactive) | > 100 µM (inactive) | > 100 µM (inactive) | > 100 µM (inactive) | > 100 µM (inactive) | – | > 100 µM (inactive) | > 100 µM (inactive) | > 100 µM (inactive)
7 | Cc1c(C)c2cc3c(=O)c(CCl)coc3c(C)c2oc1=O | > 100 µM (inactive) | > 100 µM (inactive) | > 100 µM (inactive) | > 100 µM (inactive) | > 100 µM (inactive) | > 100 µM (inactive) | > 100 µM (inactive) | 48.3 µM (inactive) | > 100 µM (inactive) | > 100 µM (inactive) | > 100 µM (inactive) | > 100 µM (inactive) | > 100 µM (inactive) | > 100 | > 100 µM (inactive) | > 100 µM (inactive) | > 100 µM (inactive)
8 | CC(C)=CCc1c(O)cc(O)c2c1OC(c1ccc(O)cc1)C(O)C2=O (centres undefined) | 27.7 µM (inactive) | 25.5 µM (inactive) | 23.6 µM (inactive) | 19.2 µM (inactive) | 32.1 µM (inactive) | 24.9 µM (inactive) | 21.9 µM (inactive) | > 10 µM (inactive) | 40 µM (inactive) | – | 31 µM (inactive) | 19.3 µM (inactive) | 21.4 µM (inactive) | 21.7 | 26.1 µM (inactive) | 18.2 µM (inactive) | 18.4 µM (inactive)
9 | Cc1ccc(Sc2ccccc2[N+](=O)[O-])cc1 | 29.8 µM (inactive) | 32.3 µM (inactive) | 27.9 µM (inactive) | 31 µM (inactive) | 38.2 µM (inactive) | 37.8 µM (inactive) | 21.7 µM (inactive) | 30.9 µM (inactive) | 28.8 µM (inactive) | 21 µM (inactive) | 23.4 µM (inactive) | 32.1 µM (inactive) | 37.3 µM (inactive) | 20 | 35 µM (inactive) | 27.4 µM (inactive) | 33 µM (inactive)
